PubChem BioAssay (NCI)
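Following 48 hours of exposure in 96-well plates, responses at five concentrations were used to interpolate endpoints linearly. GI50 = concentration required for 50% inhibition of growth. TGI denotes the concentration required for complete inhibition of growth.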

Tests used:
Assay in all cases: growth of human tumour cells (NCI), 48 h
SF-539 CNS = test system: SF-539 CNS
OVCAR-4 ovarian = test system: OVCAR-4 ovarian
NCI-H23 lung = test system: NCI-H23 lung
OVCAR-5 ovarian = test system: OVCAR-5 ovarian
OVCAR-8 ovarian = test system: OVCAR-8 ovarian
MALME-3M melanoma = test system: MALME-3M melanoma
SNB-75 CNS = test system: SNB-75 CNS
HCT-15 colon = test system: HCT-15 colon
SK-MEL-28 melanoma = test system: SK-MEL-28 melanoma
CCRF-CEM leukemia = test system: CCRF-CEM leukemia
COLO 205 colon = test system: COLO 205 colon
BT-549 breast = test system: BT-549 breast
M14 melanoma = test system: M14 melanoma
PC-3 prostate = test system: PC-3 prostate
SF-268 CNS = test system: SF-268 CNS
NCI-H522 lung = test system: NCI-H522 lung
NCI/ADR-RES ovarian = test system: NCI/ADR-RES ovarian
786-0 renal = test system: 786-0 renal
U251 CNS = test system: U251 CNS
TK-10 renal = test system: TK-10 renal
UO-31 renal = test system: UO-31 renal
HOP-92 NSCLC = test system: HOP-92 NSCLC
HL-60(TB) leukemia = test system: HL-60(TB) leukemia
SF-295 CNS = test system: SF-295 CNS
A549 NSCLC = test system: A549 NSCLC
SN12C renal = test system: SN12C renal
MDA-MB-435 = test system: MDA-MB-435
IGROV1 ovarian = test system: IGROV1 ovarian
LOX IMVI melanoma = test system: LOX IMVI melanoma
T-47D breast = test system: T-47D breast

For `O=C(Cn1c(-c2ccccc2)nc2ccccc21)N=Nc1c(O)[nH]c2ccc(Cl)cc12`, the TGI (SF-539 CNS) was 30.5 µM, the GI50 (OVCAR-4 ovarian) was 15.3 µM and the TGI (OVCAR-4 ovarian) was 34.2 µM. It also gave a GI50 (NCI-H23 lung) of 13.7 µM, a TGI (NCI-H23 lung) of 28.2 µM and a GI50 (OVCAR-5 ovarian) of 18.8 µM. For the same molecule, the TGI (OVCAR-5 ovarian) was 48 µM, the GI50 (OVCAR-8 ovarian) was 16.1 µM and the TGI (OVCAR-8 ovarian) was 34.5 µM. For the same molecule, the GI50 (MALME-3M melanoma) was 12.2 µM, the TGI (MALME-3M melanoma) was 25.5 µM and the GI50 (SNB-75 CNS) was 10.3 µM. It also gave a TGI (SNB-75 CNS) of 23.6 µM, a GI50 (HCT-15 colon) of 9.6 µM and a TGI (HCT-15 colon) of 24 µM. The GI50 (SK-MEL-28 melanoma) was 14.4 µM, the TGI (SK-MEL-28 melanoma) was 30.2 µM and the GI50 (CCRF-CEM leukemia) was 20 µM. For the same molecule, the TGI (CCRF-CEM leukemia) was > 100 µM, the GI50 (COLO 205 colon) was 21 µM and the TGI (COLO 205 colon) was 47.9 µM. It also gave a GI50 (BT-549 breast) of 16.7 µM, a TGI (BT-549 breast) of 35.7 µM and a GI50 (M14 melanoma) of 17.7 µM. It also gave a TGI (M14 melanoma) of 40.4 µM, a GI50 (PC-3 prostate) of 12.7 µM and a TGI (PC-3 prostate) of 33.8 µM. The GI50 (SF-268 CNS) was 16.1 µM, the TGI (SF-268 CNS) was 47.9 µM and the GI50 (NCI-H522 lung) was 10.3 µM. The TGI (NCI-H522 lung) was 25.1 µM, the GI50 (NCI/ADR-RES ovarian) was 12.8 µM and the TGI (NCI/ADR-RES ovarian) was 29.7 µM. It also gave a GI50 (786-0 renal) of 17.9 µM, a TGI (786-0 renal) of 39 µM and a GI50 (U251 CNS) of 16.9 µM. The TGI (U251 CNS) was 33.4 µM, the GI50 (TK-10 renal) was 17.5 µM and the TGI (TK-10 renal) was 35.6 µM. For the same molecule, the GI50 (UO-31 renal) was 11.4 µM, the TGI (UO-31 renal) was 24.1 µM and the GI50 (HOP-92 NSCLC) was 13.6 µM. The TGI (HOP-92 NSCLC) was 31.4 µM, the GI50 (HL-60(TB) leukemia) was 24 µM and the TGI (HL-60(TB) leukemia) was > 100 µM. For the same molecule, the GI50 (SF-295 CNS) was 12.3 µM, the TGI (SF-295 CNS) was 26.1 µM and the GI50 (A549 NSCLC) was 13.6 µM. It also gave a TGI (A549 NSCLC) of 30.8 µM, a GI50 (SN12C renal) of 15.5 µM and a TGI (SN12C renal) of 31.1 µM. For the same molecule, the GI50 (MDA-MB-435) was 9.18 µM, the TGI (MDA-MB-435) was 26 µM and the GI50 (IGROV1 ovarian) was 14.4 µM. It also gave a TGI (IGROV1 ovarian) of 29.9 µM, a GI50 (LOX IMVI melanoma) of 14.5 µM and a TGI (LOX IMVI melanoma) of 28.6 µM. The GI50 (T-47D breast) was 11.6 µM and the TGI (T-47D breast) was 30 µM.
